Experiment: Ames test / genotoxicity of degradation product
Format: cell-based

Q: Which Ames result does the source give for `C=C[C@@H]1C[C@]1(N)C(=O)O` [Compound X] here?
A: Ames positive

Q: What about the genotoxicity of the same compound?
A: genotoxic

Source: US20140037719A1, “STABILIZED PHARMACEUTICAL FORMULATIONS OF A POTENT HCV INHIBITOR” (Robert Majeska, priority 2012, published 2014)
